In US9605013B2, “Derivatives of hemin with antibacterial and antiviral activity” (OBSCHESTVO S OGRANICHENNOI OTVETSTVENNOSTIYU …, priority 2011, dated 2017):

Assays:
Format in all cases: cell-based
[1] = system: Enterococcus faecalis No. 559; test: Antibacterial specific activity, twofold dilutions, visual growth evaluation; details: E. faecalis 559; 36° C., 24 hours
Procedure, shortened: (§1)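 Strains are exposed at a constant inoculum of 5×10^5 CFU/ml to serial twofold compound dilutions prepared from water or DMSO stocks. After 24 hours at 36° C., visual comparison with growth controls gives the MIC as the last dilution without growth.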

Escherichia coli 4300 = test: as above; details: E. coli 4300; 36° C., 24 hours
[2] = system: Staphylococcus aureus No. 100 KC; test: as above; details: S. aureus 100 KC; 36° C., 24 hours
Procedure, shortened: as §1

[3] = system: Staphylococcus aureus No. 25923 ATCC; test: as above; details: S. aureus 25923; 36° C., 24 hours
Procedure, shortened: as §1

[4] = system: Staphylococcus aureus No. 3797 (MRSA); test: as above; details: St. aur No. 3797 MRSA; 36° C., 24 hours
Procedure, shortened: as §1

[5] = system: Staphylococcus aureus No. 5 (MRSA); test: as above; details: St. aur No. 5 MRSA; 36° C., 24 hours
Procedure, shortened: as §1

[6] = system: Staphylococcus epidermidis No. 533; test: as above; details: S. epidermis 533; 36° C., 24 hours
Procedure, shortened: as §1

[7] = system: Vancomycin-resistant Enterococcus faecium 569; test: as above; details: Vancomycin-resistant E. faecium 569; 36° C., 24 hours
Procedure, shortened: as §1

[8] = system: Herpes Simplex Virus type 2 strain G (No. VR-734 ATCC); test: Antiviral activity, virus cytopathogenic action in Vero cells; set-up: key: 0: CPA (cytopathogenic action) is not detected; 1: up to 25% virus-infected monolayer; from 25% to 50%; 3: from 50% to 75%; 4: from 75% to 100%; details: 48 hours
Procedure: […] used in the study were used Herpes Simplex Virus type 1 (the Collection of Microorganisms at the Scientific Research Institute of Virology, strain EC), Herpes Simplex Virus type 2 strain G (No. VR-734 ATCC), and human cytomegalovirus strain AD169 (No. VR-538 ATCC). Herpes Simplex viruses type 1 and type 2 were cultured in Vero cells. The cells were incubated in MEM Eagle growth medium (MEM, BioloT, St-Petersburg, 1.3.3) supplemented with 10% fetal bovine serum (BioloT, St-Petersburg, 1.3.12) in Sanyo MCO-15AC gas-flow thermostat (37° C., 5% CO2) (Tokyo, Japan). A seed dose was 2×10^5 cells/ml in the starting inoculum or 2×10^4 cells/well. Herpes Simplex viruses were cultured under the same conditions in the MEM medium without serum (maintenance medium). Starting viral titers were 10^7 TCID50/ml.
For DMSO-soluble preparations, stock solutions were prepared in a concentration of 10 mM in DMSO. For water-soluble preparations, a stock solution prepared had the same concentration in the MEM medium (Minimal Essential Medium) for cell cultures. To control cytotoxicity (see below), the stock solution was diluted in the medium to a concentration of 100 μM and ten-fold serial dilutions of the preparations were made in the MEM medium (for DMSO-soluble compounds—in the MEM medium comprising 3% DMSO). The following concentrations of the preparations were used in the study of […]: if toxicity was not found, the concentrations of 100 μM preparations were 100, 10 and 1 μM; if toxicity was detected, the concentrations of 100 μM preparations were 10, 1, and 0.1 μM. Acyclovir (10 μg/ml) was used for Herpes Simplex viruses of both types as a reference preparation to control the viral model validity.
To study antiviral activity, plate wells with a cell monolayer were added with the preparations in an amount of 0.1 ml/well. To compensate a reduction in the concentration of the preparations, which takes place in the following addition of viruses, twofold concentrations of compounds (i.e. 200, 20 and 2 or 20, 2 and 0.2 μM for […] concentrations of 100 μM preparations, respectively) were used, incubated for an hour and then were infected with the examined 0.1 ml/well viruses in doses 1, 10 and 100 TCID50 (50% tissue infectious dose).
The virus-specific cytogenic action was manifested in an increase in the size of cells, their rounding, and detachment from a substrate. These morphological characteristics served as their marked difference from the cells subjected to a toxic action of high concentrations of the examined preparations. The latter acquired spindle-like shape, lost contacts with neighboring cells of the monolayer, and their boundaries became more distinct.
Intensity of the virus-specific changes in the cells were semi-quantified using a 4-score system: 0—CPA (cytopathogenic action) is not detected; 1—up to 25% virus-infected monolayer; 2—from 25% to 50%; 3—from 50% to 75%; and 4—from 75% to 100%. The antiviral activity of a compound was evaluated according to their ability to reduce the manifestation of cytopathogenic action in the plate wells compared to the control values. Differences with the control values by 1 score and more were considered to be significant.

[9] = HSV-2, virus dose 1, concentration 0.1 μM
[10] = HSV-2, virus dose 1, concentration 1 μM
[11] = HSV-2, virus dose 1, concentration 10 μM
[12] = HSV-2, virus dose 10, concentration 0.1 μM
[13] = HSV-2, virus dose 10, concentration 1 μM
[14] = HSV-2, virus dose 10, concentration 10 μM
[15] = HSV-2, virus dose 100, concentration 0.1 μM
[16] = HSV-2, virus dose 100, concentration 1 μM
[17] = HSV-2, virus dose 100, concentration 10 μM

| Compound | MIC [1] | MIC (Escherichia coli 4300) | MIC [2] | MIC [3] | MIC [4] | MIC [5] | MIC [6] | MIC [7] | manifestation of the virus CPA [8, 9] | manifestation of the virus CPA [8, 10] | manifestation of the virus CPA [8, 11] | manifestation of the virus CPA [8, 12] | manifestation of the virus CPA [8, 13] | manifestation of the virus CPA [8, 14] | manifestation of the virus CPA [8, 15] | manifestation of the virus CPA [8, 16] | manifestation of the virus CPA [8, 17] |
| --- | --- | --- | --- | --- | --- | --- | --- | --- | --- | --- | --- | --- | --- | --- | --- | --- | --- |
| 6,7-bis-(Amide N^α-Glycyl)-Protohemin (IX) [IV] | 0.39 µM | >50.0 µM | 0.39 µM | 0.39 µM | 3.12 µM | 3.12 µM | 1.56 µM | 50 µM | 1 (up to 25% virus-infected monolayer) | 0.5 scores | 0^1 | 2 (from 25% to 50%) | 2 (from 25% to 50%) | 0^1 | 3 (from 50% to 75%) | 3 (from 50% to 75%) | 0^1 |
| 6,7-bis-[(Diamide N^α-L-Arginyl)-L-glutamyl]-Protohemin (IX) | 3.12 µM | 16.6 µM | 0.78 µM | 1.56 µM | – | – | 0.78 µM | 6.25 µM | 1 (up to 25% virus-infected monolayer) | 0.5 scores | 0^1 | 2 (from 25% to 50%) | 2 (from 25% to 50%) | 1^1 (up to 25% virus-infected monolayer) | 3 (from 50% to 75%) | 3 (from 50% to 75%) | 3 (from 50% to 75%) |
| C=CC1=C(C)c2cc3[n-]c(cc4[n-]c(cc5nc(cc1n2)C(C)=C5C=C)c(C)c4CCC(=O)N[C@@H](CCCNC(=N)N)C(N)=O)c(CCC(=O)N[C@@H](CCCNC(=N)N)C(N)=O)c3C.[Cl-].[Fe+3] [II, 6,7-bis-(Amide N^α-Arginyl)-Protohemin (IX)] | 1.3 µM | 41.6 µM | 2.6 µM | 1.04 µM | 50 µM | 41 µM | 0.39 µM | 3.12 µM | 1 (up to 25% virus-infected monolayer) | 0.5 scores | 0^1 | 1.5 scores | 2 (from 25% to 50%) | 1^1 (up to 25% virus-infected monolayer) | 3 (from 50% to 75%) | 3 (from 50% to 75%) | 3 (from 50% to 75%) |
| C=CC1=C(C)c2cc3[n-]c(cc4[n-]c(cc5nc(cc1n2)C(C)=C5C=C)c(C)c4CCC(=O)N[C@@H](CO)C(N)=O)c(CCC(=O)N[C@@H](CO)C(N)=O)c3C.[Cl-].[Fe+3] [V, 6,7-bis-(Amide N^α-Seryl)-Protohemin (IX)] | 25 µM | >50.0 µM | 0.52 µM | 0.78 µM | 1.56 µM | 1.56 µM | 1.56 µM | 25 µM | 1 (up to 25% virus-infected monolayer) | 0.5 scores | 0^1 | 2 (from 25% to 50%) | 2 (from 25% to 50%) | 0^1 | 3 (from 50% to 75%) | 3 (from 50% to 75%) | 2^1 (from 25% to 50%) |
| C=CC1=C(C)c2cc3[n-]c(cc4[n-]c(cc5nc(cc1n2)C(C)=C5C=C)c(C)c4CCC(=O)N[C@@H](CO)C(=O)O)c(CCC(=O)N[C@@H](CO)C(=O)O)c3C.[Cl-].[Fe+3] [VI, 6,7-bis-(N^α-Seryl]-Protohemin (IX)] | >50.0 µM | >50.0 µM | 5.21 µM | 12.5 µM | 0.78 µM | 0.78 µM | 3.12 µM | >50.0 µM | 1 (up to 25% virus-infected monolayer) | 1 (up to 25% virus-infected monolayer) | 0^1 | 2 (from 25% to 50%) | 2 (from 25% to 50%) | 0^1 | 3 (from 50% to 75%) | 3 (from 50% to 75%) | 2^1 (from 25% to 50%) |
